Columns and labels:
Experiment in all cases: relative viability (nuclei count vs DMSO), 5 days (fraction); higher = more cells survive
XMD14-99 + Olaparib = compound: CN1CCN(CC1)C2=CC(=C(C=C2)NC3=NC(=C(S3)C(=O)C4=C(C=CC=C4Cl)Cl)N)OC [XMD14-99] + O=C(c1cc(Cc2n[nH]c(=O)c3ccccc23)ccc1F)N1CCN(C(=O)C2CC2)CC1 [Olaparib] (partner 8 µM)
How it was run: (§1)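 Values are medians from duplicate plates. Each reflects relative viability, defined as the nuclei count of treated wells over that of vehicle wells. Lung cancer cell lines in 1536-well plates were pin-tool dosed one day after seeding with one drug alone or with a fixed anchor-drug dose plus five library-drug doses (not always all listed) in √10 steps, then fixed, stained and imaged at 4× after 5 days.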

XMD14-99 + Linsitinib = compound: CN1CCN(CC1)C2=CC(=C(C=C2)NC3=NC(=C(S3)C(=O)C4=C(C=CC=C4Cl)Cl)N)OC [XMD14-99] + C[C@]1(O)C[C@@H](c2nc(-c3ccc4ccc(-c5ccccc5)nc4c3)c3c(N)nccn32)C1 [Linsitinib] (partner 1 µM)
How it was run: as §1

AZD1208 + Crizotinib = compound: N[C@@H]1CCCN(c2c(/C=C3\SC(=O)NC3=O)cccc2-c2ccccc2)C1 [AZD1208] + C[C@@H](Oc1cc(-c2cnn(C3CCNCC3)c2)cnc1N)c1c(Cl)ccc(F)c1Cl [Crizotinib] (partner 1 µM)
How it was run: as §1

XMD14-99 + Palbociclib = compound: CN1CCN(CC1)C2=CC(=C(C=C2)NC3=NC(=C(S3)C(=O)C4=C(C=CC=C4Cl)Cl)N)OC [XMD14-99] + CC(=O)c1c(C)c2cnc(Nc3ccc(N4CCNCC4)cn3)nc2n(C2CCCC2)c1=O [Palbociclib] (partner 0.5 µM)
How it was run: as §1

## UMC-11
XMD14-99 + Olaparib; first compound 0.08 µM
  relative viability: 0.363
XMD14-99 + Olaparib; first compound 0.8 µM
  relative viability: 0.313
XMD14-99 + Olaparib; first compound 2.53 µM
  relative viability: 0.345
XMD14-99 + Olaparib; first compound 8 µM
  relative viability: 0.288
XMD14-99 + Linsitinib; first compound 0.08 µM
  relative viability: 1.03
XMD14-99 + Linsitinib; first compound 0.8 µM
  relative viability: 1.03
XMD14-99 + Linsitinib; first compound 2.53 µM
  relative viability: 1.03
XMD14-99 + Linsitinib; first compound 8 µM
  relative viability: 0.858
AZD1208 + Crizotinib; first compound 0.08 µM
  relative viability: 0.553
AZD1208 + Crizotinib; first compound 0.253 µM
  relative viability: 0.502
AZD1208 + Crizotinib; first compound 0.8 µM
  relative viability: 0.426
AZD1208 + Crizotinib; first compound 2.53 µM
  relative viability: 0.426
AZD1208 + Crizotinib; first compound 8 µM
  relative viability: 0.275
XMD14-99 + Palbociclib; first compound 0.08 µM
  relative viability: 0.34
XMD14-99 + Palbociclib; first compound 0.8 µM
  relative viability: 0.383
XMD14-99 + Palbociclib; first compound 2.53 µM
  relative viability: 0.346
XMD14-99 + Palbociclib; first compound 8 µM
  relative viability: 0.292
